From patent US9254266B2, “Inhibiting surface enhanced crystallization of amorphous pharmaceuticals with ultrathin coatings” (Wisconsin Alumni Research Foundation, priority 2007, dated 2016)
Values after ≈ are worked out from the molar mass of the structure shown.

Experiments:
Type in all cases: physicochemical
[1] = Zeta potential of IMC particles; conditions: particles suspended in 0.01 M NaCl
Description: Zeta potentials were measured with a ZetaSizer 3000HSA (Malvern Instruments, USA). Sample particles (ca. 5 mg) were dispersed in 0.01 M NaCl. […] Each reported result was the average of three measurements.
Before coating amorphous IMC by this method, the sign of its surface charge in a coating solution was determined. […] (The pH of the coating solutions was 6.1 (PDDA) and 6.4 (PSS)). […] Coating with one layer of PDDA reversed the surface charge to positive (ζ-potential=+37 mV); adding the next layer (PSS) reversed the surface charge to negative again (ζ-potential=−32 mV); and so on.

[2] = Solubility of γ IMC in buffer; conditions: aqueous buffer, thermodynamic from solid; 0.1 M PBS buffer pH 7.2, 37° C.
[3] = Intrinsic dissolution rate (IDR), USP Dissolution Apparatus II; conditions: 0.1 M phosphate buffer pH 7.2, 37° C.; for IDR: 50 RPM, first 15 minutes, no storage
Description: Measurement of intrinsic dissolution rate (IDR). The IDR was measured using a USP Dissolution Apparatus II (rotating paddle, model RC-8D, Vanguard, Spring, Tex.) following standard procedures. […] Tablets without visible chipping or surface imperfection were used for dissolution measurement. Each tablet used for IDR measurement was coated on one side and around the rim with water-impervious shellac (clear nail polish) that contained as the primary ingredient tosylamide epoxy resin. Conditions of the IDR measurement were as follows: 500 ml of 0.1 M phosphate buffer (pH 7.2), 50 RPM of paddle speed, 1 inch between the tablet and the paddle, and 37° C. Samples were taken every 2.5 minutes up to 15 minutes, every 5 minutes up to 30 minutes, and every 10 minutes up to 60 minutes. Each sample (2 ml) of the solution was drawn with a syringe and filtered through a 0.22-μm filter needle. The sample's concentration was determined by UV-visible spectrometry at 318 nm. The analyzed solution was returned to the dissolution vessel to maintain the constant volume. For each amorphous IMC material studied (with and without coating, with and without aging), the IDR measurement was performed six times with three independently prepared materials as described above.
As shown above in FIG. 4, because one layer of PDDA was nearly as effective as several layers of PDDA and PSS in inhibiting surface crystallization, this example used materials coated with a single layer of PDDA. Moreover, thinner coatings are expected to maximize the rate of dissolution. […] For comparison, the IDR of γ IMC was also measured. Each data point in FIG. 8 is the average of six measurements. For each sample of amorphous IMC (uncoated or coated), the six measurements were performed with three independently prepared materials (including melting, grinding, coating, and tableting). […] Similarly, it is assumed that the IDR of amorphous IMC was measured under a sink condition.

[4] = Water contact angle on amorphous IMC film; conditions: 22° C., 70% R.H.
Description: Contact Angle Measurements. The measurements were performed at 22° C. and 70% R.H. using a method similar to that of Zografi and Tam. […] The water droplet thus formed was about 3 mm in diameter. A side view of the droplet was recorded with a digital camera and the contact angle was measured from the image (Image J1.34 S). Each amorphous film was measured three times at different sites. Three samples were measured for each coating condition.
The water contact angle characterizes the wetting ability of the surface. The measurement was performed with amorphous IMC films on microscope cover glasses. […] The contact angle increased and decreased accordingly with additional layers of PDDA and PSS.

[5] = Flowability measurements and tablet properties of IMC powder
Description: Flowability measurements. […] To determine tapped density and compressibility, approximately 1.5 g of powder was poured into a 10-ml cylinder. The initial volume (V0) yielded the initial bulk density D0 (“fluff or poured bulk density”). The powder was then tapped for 5 minutes to obtain the final bulk volume (Vf) and the final bulk density Df (“equilibrium, tapped or consolidated bulk density”). The percent (%) compressibility (Carr's Index) was calculated from (Df−D0)/Df×100, which is another measure of powder flowability (% compressibility higher than 40% is thought to indicate a non-flowing, cohesive powder; % compressibility lower than 28% is thought to indicate a fluid to free-flowing powder).
Uncoated amorphous IMC powder was cohesive and flowed with difficulty, while the coated powder flowed more easily. For the uncoated powder, the angle of repose was 36°, signifying acceptable flowability.

[6] = Surface crystallization and crystal growth of amorphous IMC films (light microscopy)
Description: Deposition of gold coatings. A Denton Vacuum Desk II (Denton Vacuum, Moorestown, N.J.) was used to deposit a gold coating on amorphous IMC. […] Under these conditions, the deposition rate was ca. 10 nm/30 s, providing a gold coating of about 10 nm in thickness. […] The coated film was golden and reflective. Deposition of LbL polyelectrolyte coatings on amorphous films. […] (Tg−20° C.), and gently removing one cover glass. To coat several films at once, they were loaded into a Teflon rack and immersed into the PDDA solution for 15 minutes. The samples were washed twice in Milli-Q water to remove the excess PDDA and immersed in the PSS solution. This procedure was repeated until the desired number of polymer layers was reached. The coated samples were left on a Whatman filter paper to remove the excess liquid on the slide and dried in a vacuum (0.4 mTorr) at 22° C. for 3 hrs. X-ray powder diffraction (XRPD). XRPD was performed with a Bruker D8 Advance X-ray diffractometer, which was equipped with a CuKα source (λ=1.54056 Å) operating at a tube load of 40 kV and 40 mA. The divergence slit size was 1 mm, the receiving slit, 1 mm, and the detector slit, 0.1 mm. Data was collected by a high-resolution Sol-X detector. Each sample was scanned between 2 and 40° (2θ) with a step size of 0.02° and a maximum scan rate of 3 s/step. The NIST standard SRM 1976 was used to check the instrument's calibration and performance. Samples of small quantities were analyzed on a Si(510) zero-background holder. Polarized light microscopy (PLM) was performed with a Nikon Optiphot Pol 2 microscope equipped with an Olympus video camera. The video image was calibrated against a 1-mm stage micrometer (100 divisions). Differential scanning calorimetry (DSC) was conducted in crimped Al pans using a TA Instruments Q1000 unit under 50 mL/min N2 purge. […] (Tg−2° C.). […] The crystals were birefringent. […] All samples were tested at 40° C. in a desiccator. […] Moreover, coating a partially crystallized sample with gold inhibited further crystallization. […] The set of experiments was again performed with amorphous IMC films prepared on microscope cover glasses. […] By contrast, only a small percentage of a coated surface was covered by crystals (white spots in the pictures) under the same conditions (FIG. 4b). Moreover, the crystals that did form on the coated surface grew much more slowly than those on the uncoated surface.

[7] = Crystallization of amorphous IMC powder on storage (XRPD, DSC)
Description: The particles were sieved through to a 75 μm screen, transferred to a 200 ml beaker containing 100 ml of the PDDA solution, and kept in contact with the solution for 15 minutes. The suspension was filtered through #2 Whatman filter paper to remove the supernatant and washed with Milli-Q water. Vacuum was then applied to dry the particles for at least 3 hrs.
X-ray powder diffraction (XRPD). XRPD was performed with a Bruker D8 Advance X-ray diffractometer, which was equipped with a CuKα source (λ=1.54056 Å) operating at a tube load of 40 kV and 40 mA. The divergence slit size was 1 mm, the receiving slit, 1 mm, and the detector slit, 0.1 mm. Data was collected by a high-resolution Sol-X detector. Each sample was scanned between 2 and 40° (2θ) with a step size of 0.02° and a maximum scan rate of 3 s/step. The NIST standard SRM 1976 was used to check the instrument's calibration and performance. Samples of small quantities were analyzed on a Si(510) zero-background holder. Polarized light microscopy (PLM) was performed with a Nikon Optiphot Pol 2 microscope equipped with an Olympus video camera. The video image was calibrated against a 1-mm stage micrometer (100 divisions). Differential scanning calorimetry (DSC) was conducted in crimped Al pans using a TA Instruments Q1000 unit under 50 mL/min N2 purge.
The larger the exotherm, the greater the amorphous fraction before DSC analysis. […]

Compound	ζ-potential [1]	solubility [2] [µg/mL]	IDR [3] [mg/cm^2/min]	water contact angle [4] [°]	% Compressibility ([5]; Carr's Index, (Df−D0)/Df×100) [%]	angle of repose ([5]; powder) [°]	angle of repose ([5]; powder sieved through 75 μm screen)	Tapped Density ([5]; powder tapped for 5 minutes) [g/mL]	Tablet Bulk Density ([5]; tablets made with a Carver press) [g/mL]	Tablet Porosity ([5]; true density of 1.31 g/cm^3 used) [%]	surface crystallization in vacuum compared with desiccated ambient air ([6]; 0.4 mTorr and 22° C.)	surface covered by crystals after 20 days ([6]; 15 μm films on cover glasses, 20 days at 40° C.)	crystallization of film between two cover glasses ([6]; below Tg (42° C.), no free surface)	appearance of crystals at free surface ([6]; one cover glass removed, 40° C.)	coverage of free surface with crystals on storage ([6]; uncoated film, 40° C.)	solid state of powder after 2 days (PXRD) ([7]; 2 days at 40° C., powder sieved through 75 μm)	DSC crystallization exotherm after 2 days ([7]; 2 days of storage at 40° C.)	time until tablet began crystallizing to α IMC in the dissolution medium [3]	IDR ([3]; listed as Uncoated) [mg/cm^2/min]	IDR after 2 d ([3]; after 2 days of storage at 40° C.) [mg/cm^2/min]
COc1ccc2c(c1)c(CC(=O)O)c(C)n2C(=O)c1ccc(Cl)cc1 [γ IMC, 1-(p-chlorobenzoyl)-5-methoxy-2-methylindole-3-acetic acid]	negatively charged	1500 (≈ 4.19 mM)	0.07	–	–	–	–	–	–	–	–	–	–	–	–	–	–	–	–	–
COc1ccc2c(c1)c(CC(=O)O)c(C)n2C(=O)c1ccc(Cl)cc1 [amorphous IMC, 1-(p-chlorobenzoyl)-5-methoxy-2-methylindole-3-acetic acid]	−41 mV	–	–	44	42 ± 1	36	36.1 ± 2.3	0.52 ± 0.03	1.07 ± 0.03	18 ± 2	same rate of crystal growth	completely covered with crystals	does not crystallize for months	crystals appear in days	After two or three weeks, the surface was fully covered with crystals	crystallized into γ IMC	disappears	approximately 20 minutes	0.56	0.10
